Measurements: publication PMC10584170, “Machine learning-based phenotypic imaging to characterise the targetable biology of Plasmodium falciparum male gametocytes for the development of transmission-blocking antimalarials” (PLOS Pathogens, 2023)
Like-named read-outs stand apart in the source and are kept apart here.

Columns and labels:
[1] = system: P. falciparum male gametocytes; assay: P. falciparum Dual Gamete Formation Assay (PfDGFA), male readout (exflagellation); format: cell-based, Plasmodium falciparum NF54; conditions: for Selectivity Ratio M: HepG2 Tox50 versus male IC50; for IC50: PfDGFA, 24 h incubation with gametocytes before induction, exflagellation readout, read-out: Male IC50; for HitlevelM: number of replicates with >50% inhibition in the male readout
Outline: (§1)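 First, day-14 P. falciparum NF54 gametocytes receive compound for 24 h at 37°C in 1% O2/3% CO2. Next, ookinete medium with Cy3 anti-Pfs25 triggers gametogenesis at 28°C and male exflagellation is imaged. Finally, after 24 h in the dark, Cy3-labelled females are imaged.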

[2] = system: P. falciparum female gametocytes; assay: P. falciparum Dual Gamete Formation Assay (PfDGFA), female readout (Pfs25-positive female gametes); format: cell-based, Plasmodium falciparum NF54; conditions: for Selectivity ratio F: HepG2 Tox50 versus female IC50; for IC50: PfDGFA, 24 h incubation with gametocytes before induction, female gamete readout, read-out: Female IC50; for HitlevelF: number of replicates with >50% inhibition in the female readout
Outline: as §1

[3] = system: HepG2 cells; assay: HepG2 cytotoxicity counter-screen; conditions: cytotoxic activity against HepG2 cells
[4] = 2µM, 24h preincubation with gametocytes, average of replicates
[5] = 2µM, 24h preincubation with gametocytes, replicate R1
[6] = 2µM, 24h preincubation with gametocytes, replicate R3
[7] = 2µM, 24h preincubation with gametocytes, replicate R4
[8] = PfDGFA at 2µM, 24h preincubation with gametocytes, average of replicates
[9] = PfDGFA at 2µM, 24h preincubation with gametocytes, replicate R1
[10] = PfDGFA at 2µM, 24h preincubation with gametocytes, replicate R3
[11] = PfDGFA at 2µM, 24h preincubation with gametocytes, replicate R4
[12] = 2µM, 24h preincubation with gametocytes prior to induction of gametogenesis, average of replicates
[13] = 2µM, 24h preincubation with gametocytes prior to induction of gametogenesis, replicate R1
[14] = 2µM, 24h preincubation with gametocytes prior to induction of gametogenesis, replicate R3
[15] = 2µM, 24h preincubation with gametocytes prior to induction of gametogenesis, replicate R4

SMILES	Average inhibition male (%) [1, 4] [%]	% inhibition male (individual replicates) R1 [1, 5] [%]	% inhibition male (individual replicates) R3 [1, 6] [%]	% inhibition male (individual replicates) R4 [1, 7] [%]	Selectivity Ratio M [1]	IC50 [1] [nM]	Average inhibition female (%) [2, 4] [%]	% inhibition female (individual replicates) R1 [2, 5] [%]	% inhibition female (individual replicates) R3 [2, 6] [%]	% inhibition female (individual replicates) R4 [2, 7] [%]	Selectivity ratio F [2]	IC50 [2] [nM]	Tox50 [3] [µM]	also measured
C=CC(C)C1OC(=O)c2cc(OC)cc(OC)c21 (centres unmarked) [TCMDC-138676]	100.2	101.1	101.1	99.6	2.76	570	94.9	92.0	102.0	91.3	1.37	1150	1.57	–
C=CCC1OC(=O)c2cc(OC)cc(OC)c21 (centres unmarked) [TCMDC-138677]	100.4	99.9	100.4	100.2	2.21	1160	52.4	41.8	47.5	59.2	1.43	1800	2.57	–
COc1cc2nc(N3CCC(CNC(=O)c4ccc(-c5ccc(Cl)cc5)cc4)CC3)nc(N)c2cc1OC [TCMDC-138718]	–	–	–	–	3.57	1940	–	–	–	–	3.36	2060	6.93	Average inhibition male (%) [1, 8]: 79.1%; % inhibition male (individual replicates) R1 [1, 9]: 85.4%; % inhibition male (individual replicates) R3 [1, 10]: 66.5%; % inhibition male (individual replicates) R4 [1, 11]: 84.2%; HitlevelM ([1]; 2µM): 4; Average inhibition female (%) [2, 8]: 49.0%; % inhibition female (individual replicates) R1 [2, 9]: 33.3%; % inhibition female (individual replicates) R3 [2, 10]: 38.5%; % inhibition female (individual replicates) R4 [2, 11]: 37.2%; HitlevelF ([2]; 2µM): 1
COc1cc2nc(N3CCC(CNC(=O)c4ccc(-c5ccc(-c6noc(C)n6)cc5)cc4)CC3)nc(N)c2cc1OC [TCMDC-138754]	99.2	101.8	98.0	96.9	6	610	48.8	31.8	47.5	53.9	6.02	610	3.68	–
COc1cc2nc(N3CCC(CNCc4ccc(-c5ccc(C(F)(F)F)cc5)cc4)CC3)nc(N)c2cc1OC [TCMDC-138757]	97.9	97.9	96.8	99.6	9.29	220	59.1	32.6	30.7	89.8	8.75	230	2.05	–
Cl.Clc1ccc(OCCC2CCN(CCCCCCCN3CCC(CCOc4ccc(Cl)c(Cl)c4)CC3)CC2)cc1Cl [TCMDC-138967]	95.6	93.1	96.8	99.1	2.82	1190	87.8	88.3	97.6	78.8	1.93	1740	3.36	–
COc1ccc(NC(=O)c2ccc(OCCCCCCCOc3ccc(C(=O)Nc4ccc(OC)c(N5CCN(C)CC5)c4)cc3)cc2)cc1N1CCN(C)CC1.O=C(O)C(=O)O [TCMDC-139007]	92.9	92.7	82.0	95.6	4.37	900	47.5	33.2	33.3	62.1	2.96	1330	3.94	–
COc1ccc(NC(=O)c2cccc(Br)c2)cc1N1CCN(CCCCCCCN2CCN(c3cc(NC(=O)c4cccc(Br)c4)ccc3OC)CC2)CC1.Cl [TCMDC-139020]	–	–	–	–	4	1980	–	–	–	–	4.34	1830	7.95	Average inhibition male (%) [1, 12]: 30.8%; % inhibition male (individual replicates) R1 [1, 13]: 35.3%; % inhibition male (individual replicates) R3 [1, 14]: 36.0%; % inhibition male (individual replicates) R4 [1, 15]: 43.4%; HitlevelM ([1]; 2µM, 24h preincubation): 0; Average inhibition female (%) [2, 12]: 52.2%; % inhibition female (individual replicates) R1 [2, 13]: 51.4%; % inhibition female (individual replicates) R3 [2, 14]: 52.5%; % inhibition female (individual replicates) R4 [2, 15]: 56.9%; HitlevelF ([2]; 2µM, 24h preincubation): 3
COc1cccc(C23NC(=Nc4nc5ccccc5[nH]4)NC2(c2cccc(OC)c2)NC(=Nc2nc4ccccc4[nH]2)N3)c1 (centres unmarked) [TCMDC-139087]	–	–	–	–	17.52	–	–	–	–	–	24.94	–	32.37	inhibition at 2 µM ([1]; Plasmodium falciparum, PfDGFA at 2µM, 24h preincubation with gametocytes, average of replicates, read-out: Average inhibition male (%)): 78.4%; inhibition at 2 µM ([1]; Plasmodium falciparum, PfDGFA at 2µM, 24h preincubation with gametocytes, replicate R1, read-out: % inhibition male (individual replicates) R1): 83%; inhibition at 2 µM ([1]; Plasmodium falciparum, PfDGFA at 2µM, 24h preincubation with gametocytes, replicate R2, read-out: % inhibition male (individual replicates) R2): 72.6%; inhibition at 2 µM ([1]; Plasmodium falciparum, PfDGFA at 2µM, 24h preincubation with gametocytes, replicate R3, read-out: % inhibition male (individual replicates) R3): 79%; inhibition at 2 µM ([1]; Plasmodium falciparum, PfDGFA at 2µM, 24h preincubation with gametocytes, replicate R4, read-out: % inhibition male (individual replicates) R4): 78.9%; IC50 ([1]; Plasmodium falciparum): 1850 nM; HitlevelM ([1]; 2µM): 4; inhibition at 2 µM ([2]; Plasmodium falciparum, PfDGFA at 2µM, 24h preincubation with gametocytes, average of replicates, read-out: Average inhibition female (%)): 28.9%; inhibition at 2 µM ([2]; Plasmodium falciparum, PfDGFA at 2µM, 24h preincubation with gametocytes, replicate R1, read-out: % inhibition female (individual replicates) R1): 18.4%; inhibition at 2 µM ([2]; Plasmodium falciparum, PfDGFA at 2µM, 24h preincubation with gametocytes, replicate R2, read-out: % inhibition female (individual replicates) R2): 40.4%; inhibition at 2 µM ([2]; Plasmodium falciparum, PfDGFA at 2µM, 24h preincubation with gametocytes, replicate R3, read-out: % inhibition female (individual replicates) R3): 9.2%; inhibition at 2 µM ([2]; Plasmodium falciparum, PfDGFA at 2µM, 24h preincubation with gametocytes, replicate R4, read-out: % inhibition female (individual replicates) R4): 47.7%; IC50 ([2]; Plasmodium falciparum): 1300 nM; HitlevelF ([2]; 2µM): 0
